Results: article PMC5849685, “Molecular basis of an agarose metabolic pathway acquired by a human intestinal symbiont” (Nature Communications, 2018)
Values belong to the molecule of their own block, whether it stands above or below them.

Legend:
Assay type in all cases: biochemical
GH2C = biological target: T1, GH2C (Bacteroides uniformis, UniProt A0A2D0TCC9); test: TLC product analysis; settings: 2 uM enzyme, 2.5 mM A3, 20 mM Tris pH 8.0, 0.5 M NaCl, 37 C, 2 h
T1 construct: nucleotides 76-2547 of the gene (signal peptide removed; about residues 26-848), N-terminal His6 tag with thrombin site, pET28a, E. coli BL21 Star (DE3)
T1 sequence (A0A2D0TCC9 4-826): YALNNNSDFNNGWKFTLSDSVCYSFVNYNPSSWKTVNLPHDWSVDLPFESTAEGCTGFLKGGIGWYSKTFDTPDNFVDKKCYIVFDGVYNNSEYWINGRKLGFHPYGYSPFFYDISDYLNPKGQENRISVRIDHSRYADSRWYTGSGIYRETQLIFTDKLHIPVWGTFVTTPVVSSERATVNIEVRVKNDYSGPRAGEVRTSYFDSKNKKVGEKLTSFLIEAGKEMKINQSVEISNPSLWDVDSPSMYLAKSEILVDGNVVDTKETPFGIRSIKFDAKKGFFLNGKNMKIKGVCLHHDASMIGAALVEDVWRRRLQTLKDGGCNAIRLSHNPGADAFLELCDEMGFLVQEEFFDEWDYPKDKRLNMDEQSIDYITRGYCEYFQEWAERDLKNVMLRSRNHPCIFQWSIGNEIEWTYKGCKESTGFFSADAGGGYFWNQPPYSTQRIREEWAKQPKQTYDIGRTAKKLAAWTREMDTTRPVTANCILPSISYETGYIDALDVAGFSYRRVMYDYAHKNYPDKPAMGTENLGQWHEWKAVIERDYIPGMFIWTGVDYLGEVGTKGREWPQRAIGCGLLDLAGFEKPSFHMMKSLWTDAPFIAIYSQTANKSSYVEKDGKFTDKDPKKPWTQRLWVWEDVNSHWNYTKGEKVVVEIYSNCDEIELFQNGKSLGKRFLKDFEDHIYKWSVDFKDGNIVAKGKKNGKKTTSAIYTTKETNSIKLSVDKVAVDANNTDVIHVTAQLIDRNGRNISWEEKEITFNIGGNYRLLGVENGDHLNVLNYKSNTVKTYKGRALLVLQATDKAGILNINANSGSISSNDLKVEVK

GH16B = biological target: T2, GH16B (Bacteroides uniformis, UniProt A0A2D0TCD1); test: FACE product analysis; settings: 20 mM Tris pH 8.0, 0.5 M NaCl, 37 C, overnight
T2 construct: nucleotides 67-1029 of the gene (signal peptide removed; about residues 23-342), N-terminal His6 tag with thrombin site, pET28a, E. coli BL21 Star (DE3)
T2 sequence (A0A2D0TCD1 4-323): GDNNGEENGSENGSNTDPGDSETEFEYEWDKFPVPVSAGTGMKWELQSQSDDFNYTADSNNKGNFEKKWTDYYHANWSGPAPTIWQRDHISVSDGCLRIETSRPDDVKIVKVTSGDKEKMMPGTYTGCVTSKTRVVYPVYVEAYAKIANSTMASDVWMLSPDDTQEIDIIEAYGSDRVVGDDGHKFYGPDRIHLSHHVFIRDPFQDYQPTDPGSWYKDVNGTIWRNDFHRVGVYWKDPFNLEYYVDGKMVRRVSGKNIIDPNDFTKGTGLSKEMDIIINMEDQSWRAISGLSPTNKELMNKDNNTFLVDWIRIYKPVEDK

GH86 = biological target: T3, GH86 (Bacteroides uniformis, UniProt A0A2D0TCD3); test: FACE product analysis; settings: 20 mM Tris pH 8.0, 0.5 M NaCl, 37 C, overnight
T3 construct: nucleotides 61-1941 of the gene (signal peptide removed; about residues 21-646), N-terminal His6 tag with thrombin site, pET28a, E. coli BL21 Star (DE3)
T3 sequence (A0A2D0TCD3 4-629): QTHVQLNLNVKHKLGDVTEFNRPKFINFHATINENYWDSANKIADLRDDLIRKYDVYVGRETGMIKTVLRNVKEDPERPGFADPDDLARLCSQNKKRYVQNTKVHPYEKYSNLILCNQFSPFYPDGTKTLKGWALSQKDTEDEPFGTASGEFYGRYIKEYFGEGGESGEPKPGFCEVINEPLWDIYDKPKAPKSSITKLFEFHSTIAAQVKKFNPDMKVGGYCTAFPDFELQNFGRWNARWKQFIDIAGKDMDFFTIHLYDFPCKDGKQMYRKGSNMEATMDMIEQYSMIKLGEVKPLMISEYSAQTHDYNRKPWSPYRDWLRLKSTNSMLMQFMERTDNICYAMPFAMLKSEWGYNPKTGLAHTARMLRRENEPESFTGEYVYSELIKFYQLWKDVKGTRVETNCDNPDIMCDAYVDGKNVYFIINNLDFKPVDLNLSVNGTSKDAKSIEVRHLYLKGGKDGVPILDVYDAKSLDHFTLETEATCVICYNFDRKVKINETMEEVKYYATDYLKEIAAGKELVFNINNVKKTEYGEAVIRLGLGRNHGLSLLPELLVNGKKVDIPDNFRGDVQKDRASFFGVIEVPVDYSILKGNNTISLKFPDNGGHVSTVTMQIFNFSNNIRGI

GH117B = biological target: T4, GH117B (Bacteroides uniformis, UniProt A0A2D0TCD6); test: TLC product analysis; settings: 0.5 uM enzyme, 0.5 mg/ml N2, 20 mM Tris pH 8.0, 0.5 M NaCl, 37 C, 24 h
T4 construct: nucleotides 76-1209 of the gene (signal peptide removed; about residues 26-402), N-terminal His6 tag with thrombin site, pET28a, E. coli BL21 Star (DE3); homodimer
T4 sequence (A0A2D0TCD6 4-380): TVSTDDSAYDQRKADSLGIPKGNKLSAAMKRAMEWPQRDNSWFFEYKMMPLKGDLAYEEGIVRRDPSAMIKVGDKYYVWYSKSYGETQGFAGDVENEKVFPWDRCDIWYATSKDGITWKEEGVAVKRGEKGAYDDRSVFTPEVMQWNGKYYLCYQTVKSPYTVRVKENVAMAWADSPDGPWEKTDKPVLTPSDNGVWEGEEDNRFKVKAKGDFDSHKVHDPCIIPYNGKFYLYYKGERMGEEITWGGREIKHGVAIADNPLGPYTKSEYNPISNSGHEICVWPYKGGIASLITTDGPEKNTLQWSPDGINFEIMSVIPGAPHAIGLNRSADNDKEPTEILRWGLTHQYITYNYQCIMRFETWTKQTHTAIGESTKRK

TLC product analysis (GH2C): GH2C was able to hydrolyze A3
SMILES: OC[C@H]1O[C@@H](O[C@H]2[C@H]3OC[C@@H]2O[C@@H](O[C@H]2[C@@H](O)[C@@H](CO)OC(O)[C@@H]2O)[C@H]3O)[C@H](O)[C@@H](O)[C@H]1O (stereo partly drawn) [A3, agarotriose]

SMILES: OC[C@H]1O[C@@H](O[C@H]2[C@H]3OC[C@@H]2O[C@@H](O[C@H]2[C@@H](O)[C@@H](CO)O[C@@H](O[C@H]4[C@H]5OC[C@@H]4O[C@@H](O[C@H]4[C@@H](O)[C@@H](CO)OC(O)[C@@H]4O)[C@H]5O)[C@@H]2O)[C@H]3O)[C@H](O)[C@@H](O[C@@H]2O[C@H]3CO[C@@H]([C@@H]2O)[C@@H]3O)[C@H]1O (stereo partly drawn) [N6, neoagarohexaose]
FACE product analysis (GH16B; weak activity): GH16B predominantly generated N4 from N8, N2 and N4 from N6
FACE product analysis (GH86): GH86 was able to digest neoagarooctaose (N8) and neoagarohexaose (N6) to N2

SMILES: OC[C@H]1O[C@@H](O[C@H]2[C@H]3OC[C@@H]2O[C@@H](O[C@H]2[C@@H](O)[C@@H](CO)O[C@@H](O[C@H]4[C@H]5OC[C@@H]4O[C@@H](O[C@H]4[C@@H](O)[C@@H](CO)O[C@@H](O[C@H]6[C@H]7OC[C@@H]6O[C@@H](O[C@H]6[C@@H](O)[C@@H](CO)OC(O)[C@@H]6O)[C@H]7O)[C@@H]4O)[C@H]5O)[C@@H]2O)[C@H]3O)[C@H](O)[C@@H](O[C@@H]2O[C@H]3CO[C@@H]([C@@H]2O)[C@@H]3O)[C@H]1O (stereo partly drawn) [N8, neoagarooctaose]
FACE product analysis (GH16B): GH16B predominantly generated N4 from N8, N2 and N4 from N6
FACE product analysis (GH86): GH86 was able to digest neoagarooctaose (N8) and neoagarohexaose (N6) to N2

TLC product analysis (GH117B): GAL and AHG released from N2 by GH117B
SMILES: OC[C@H]1OC(O)[C@H](O)[C@@H](O[C@@H]2O[C@H]3CO[C@@H]([C@@H]2O)[C@@H]3O)[C@H]1O (stereo partly drawn) [N2, neoagarobiose]
